Results: patent publication US6660774B2, “Use of (+)-tramadol, O-demethyltramadol or (+)-O-demethyl-tramadol, O-desmethyl-N-mono-desmethyl-tramadol or (+)- O-desmethyl-N-mono-desmethyltramadol” (Gruenethal GmbH, priority 1999, dated 2003)

Experiments:
[1] = analgesic effects less pronounced on intravenous than on intracerebroventricular administration; cited from earlier work
[2] = system: virgin, female Sprague-Dawley rats (bladder function); assay: Cystometric testing on conscious, virgin rats; assay type: in vivo, rat
[3] = 1.0 mg/kg i.v., Diff.: change relative to the initial value
[4] = 1.0 mg/kg i.v., h: after administration, at maximum action
[5] = 1.0 mg/kg i.v., v: before administration (initial value)
[6] = 5.0 mg/kg i.v., Diff.: change relative to the initial value
[7] = 5.0 mg/kg i.v., h: after administration, at maximum action
[8] = 5.0 mg/kg i.v., v: before administration (initial value)
[9] = 10.0 mg/kg i.v., Diff.: change relative to the initial value
[10] = 10.0 mg/kg i.v., h: after administration, at maximum action
[11] = 10.0 mg/kg i.v., v: before administration (initial value)

For CNCC1CCCCC1(O)c1cccc(O)c1 (stereo not drawn) [M5, O-desmethyl-N-mono-desmethyltramadol], the “penetration of the blood-brain barrier (in words)” value [1] is given as “only a limited extent”.
With COc1cccc([C@@]2(O)CCCC[C@@H]2CN(C)C)c1 (racemic) [Tramadol, (1RS,2RS)-2-dimethylaminomethyl-1-(3-methoxyphenyl)cyclohexanol] the Basal pressure [2, 3] was “Diff.: +26%”, the Bladder capacity [2, 3] was “Diff.: −2%” and the Micturition pressure [2, 3] was “Diff.: −10%”. The Micturition volume [2, 3] was “Diff.: +27%”, the Residual volume [2, 3] was “Diff.: −89%” and the Threshold pressure [2, 3] was “Diff.: +50%”. For the same molecule, the Basal pressure [2, 4] was “h: 11.34 ± 1.54 cm H2O”, the Bladder capacity [2, 4] was “h: 0.82 ± 0.09 ml” and the Micturition pressure [2, 4] was “h: 85 ± 6 cm H2O”. The Micturition volume [2, 4] was “h: 0.95 ± 0.08 ml”, the Residual volume [2, 4] was “h: 0.01 ± 0.005 ml” and the Threshold pressure [2, 4] was “h: 21.03 ± 3.10 cm H2O”. The Basal pressure [2, 5] was “v: 9.02 ± 1.12 cm H2O”, the Bladder capacity [2, 5] was “v: 0.84 ± 0.11 ml” and the Micturition pressure [2, 5] was “v: 94 ± 7 cm H2O”. For the same molecule, the Micturition volume [2, 5] was “v: 0.75 ± 0.09 ml”, the Residual volume [2, 5] was “v: 0.09 ± 0.02 ml” and the Threshold pressure [2, 5] was “v: 14.0 ± 2.04 cm H2O”. The “action on threshold pressure compared with 10 mg/kg of racemic tramadol” value ([2]; 5 mg/kg) was “doubled”, the Basal pressure [2, 6] was “Diff.: +1%” and the Bladder capacity [2, 6] was “Diff.: +6%”. For the same molecule, the Inter-contraction interval [2, 6] was “Diff.: −11%”, the Micturition pressure [2, 6] was “Diff.: −27%” and the Micturition volume [2, 6] was “Diff.: +42%”. The Residual volume [2, 6] was “Diff.: −73%”, the Threshold pressure [2, 6] was “Diff.: +37%” and the Basal pressure [2, 7] was “h: 9.30 ± 2.10 cm H2O”. For the same molecule, the Bladder capacity [2, 7] was “h: 0.92 ± 0.08 ml”, the Micturition pressure [2, 7] was “h: 75 ± 10 cm H2O” and the Micturition volume [2, 7] was “h: 1.08 ± 0.09 ml”. For the same molecule, the Residual volume [2, 7] was “h: 0.03 ± 0.01 ml”, the Threshold pressure [2, 7] was “h: 17.05 ± 2.33 cm H2O” and the Basal pressure [2, 8] was “v: 9.21 ± 1.35 cm H2O”. The Bladder capacity [2, 8] was “v: 0.87 ± 0.07 ml”, the Micturition pressure [2, 8] was “v: 103 ± 10 cm H2O” and the Micturition volume [2, 8] was “v: 0.76 ± 0.06 ml”. The Residual volume [2, 8] was “v: 0.11 ± 0.02 ml”, the Threshold pressure [2, 8] was “v: 12.45 ± 1.411 cm H2O” and the “threshold pressure (in words)” value ([2]; 10 mg/kg i.v.) was “distinct rise”. For the same molecule, the Basal pressure [2, 9] was “Diff.: +40%”, the Bladder capacity [2, 9] was “Diff.: −18%” and the Inter-contraction interval [2, 9] was “Diff.: −40%”. For the same molecule, the Micturition pressure [2, 9] was “Diff.: −11%”, the Micturition volume [2, 9] was “Diff.: +33%” and the Residual volume [2, 9] was “Diff.: −50%”. The Threshold pressure [2, 9] was “Diff.: +70%”, the Basal pressure [2, 10] was “h: 14.31 ± 1.89 cm H2O” and the Bladder capacity [2, 10] was “h: 0.78 ± 0.08 ml”. For the same molecule, the Micturition pressure [2, 10] was “h: 66 ± 5 cm H2O”, the Micturition volume [2, 10] was “h: 1.13 ± 0.08 ml” and the Residual volume [2, 10] was “h: 0.05 ± 0.005 ml”. The Threshold pressure [2, 10] was “h: 25.50 ± 2.40 cm H2O”, the Basal pressure [2, 11] was “v: 10.21 ± 1.03 cm H2O” and the Bladder capacity [2, 11] was “v: 0.95 ± 0.06 ml”. The Micturition pressure [2, 11] was “v: 74 ± 5 cm H2O”, the Micturition volume [2, 11] was “v: 0.85 ± 0.05 ml” and the Residual volume [2, 11] was “v: 0.10 ± 0.02 ml”. The Threshold pressure [2, 11] was “v: 15.01 ± 1.32 cm H2O” and the “ICI (in words)” value ([2]; most effective dose (10 mg/kg)) was “distinct reduction”.
